PubChem BioAssay (NCI)
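Five concentrations, 48 hours, 96-well plates. The concentration for full growth arrest is given as TGI.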

Assays:
Assay in all cases: NCI anticancer screen, dose series, 48 h
SR leukemia = system: SR leukemia
NCI-H460 lung = system: NCI-H460 lung
M14 melanoma = system: M14 melanoma
HL-60(TB) leukemia = system: HL-60(TB) leukemia
CAKI-1 renal = system: CAKI-1 renal
MDA-N = system: MDA-N
SW-620 colon = system: SW-620 colon
SF-295 CNS = system: SF-295 CNS
SF-268 CNS = system: SF-268 CNS
BT-549 breast = system: BT-549 breast
A498 renal = system: A498 renal
SNB-75 CNS = system: SNB-75 CNS
OVCAR-4 ovarian = system: OVCAR-4 ovarian
KM12 colon = system: KM12 colon
K-562 leukemia = system: K-562 leukemia
PC-3 prostate = system: PC-3 prostate
TK-10 renal = system: TK-10 renal
HCC-2998 colon = system: HCC-2998 colon
SK-MEL-5 melanoma = system: SK-MEL-5 melanoma
SF-539 CNS = system: SF-539 CNS
786-0 renal = system: 786-0 renal
HT29 colon = system: HT29 colon
LOX IMVI melanoma = system: LOX IMVI melanoma
DU-145 prostate = system: DU-145 prostate
SK-MEL-28 melanoma = system: SK-MEL-28 melanoma
NCI-H23 lung = system: NCI-H23 lung
COLO 205 colon = system: COLO 205 colon
IGROV1 ovarian = system: IGROV1 ovarian
SK-MEL-2 melanoma = system: SK-MEL-2 melanoma
MALME-3M melanoma = system: MALME-3M melanoma
HOP-62 NSCLC = system: HOP-62 NSCLC
CCRF-CEM leukemia = system: CCRF-CEM leukemia
UO-31 renal = system: UO-31 renal
ACHN renal = system: ACHN renal
MCF7 breast = system: MCF7 breast
HS 578T breast = system: HS 578T breast
OVCAR-3 ovarian = system: OVCAR-3 ovarian
U251 CNS = system: U251 CNS
NCI/ADR-RES ovarian = system: NCI/ADR-RES ovarian
RPMI-8226 leukemia = system: RPMI-8226 leukemia
OVCAR-5 ovarian = system: OVCAR-5 ovarian
HCT-15 colon = system: HCT-15 colon
A549 NSCLC = system: A549 NSCLC
T-47D breast = system: T-47D breast
HOP-92 NSCLC = system: HOP-92 NSCLC
UACC-257 melanoma = system: UACC-257 melanoma
UACC-62 melanoma = system: UACC-62 melanoma
MDA-MB-435 = system: MDA-MB-435
SN12C renal = system: SN12C renal
SK-OV-3 ovarian = system: SK-OV-3 ovarian
SNB-19 CNS = system: SNB-19 CNS
RXF 393 renal = system: RXF 393 renal
HCT-116 colon = system: HCT-116 colon
NCI-H226 lung = system: NCI-H226 lung
EKVX NSCLC = system: EKVX NSCLC
MOLT-4 leukemia = system: MOLT-4 leukemia
OVCAR-8 ovarian = system: OVCAR-8 ovarian
MDA-MB-231 breast = system: MDA-MB-231 breast
NCI-H522 lung = system: NCI-H522 lung

## CCCCCCCCCC1(N=[N+]=[N-])C(=O)c2ccccc2N(C)C1=O (stereo not drawn)
SR leukemia
  TGI: > 100 µM
NCI-H460 lung
  TGI: > 100 µM
M14 melanoma
  TGI: 64.6 µM
HL-60(TB) leukemia
  TGI: > 100 µM
CAKI-1 renal
  TGI: > 100 µM
MDA-N
  TGI: 79.1 µM
SW-620 colon
  TGI: > 100 µM
SF-295 CNS
  TGI: > 100 µM
SF-268 CNS
  TGI: > 100 µM
BT-549 breast
  TGI: 74.6 µM
A498 renal
  TGI: 76.8 µM
SNB-75 CNS
  TGI: > 100 µM
OVCAR-4 ovarian
  TGI: > 100 µM
KM12 colon
  TGI: > 100 µM
K-562 leukemia
  TGI: > 100 µM
PC-3 prostate
  TGI: > 100 µM
TK-10 renal
  TGI: > 100 µM
HCC-2998 colon
  TGI: 96.2 µM
SK-MEL-5 melanoma
  TGI: 26.6 µM
SF-539 CNS
  TGI: > 100 µM
786-0 renal
  TGI: > 100 µM
HT29 colon
  TGI: > 100 µM
LOX IMVI melanoma
  TGI: 34.3 µM
DU-145 prostate
  TGI: > 100 µM
SK-MEL-28 melanoma
  TGI: 78.8 µM
NCI-H23 lung
  TGI: 97.4 µM
COLO 205 colon
  TGI: > 100 µM
IGROV1 ovarian
  TGI: 60.7 µM
SK-MEL-2 melanoma
  TGI: 69 µM
MALME-3M melanoma
  TGI: 70.2 µM
HOP-62 NSCLC
  TGI: > 100 µM
CCRF-CEM leukemia
  TGI: > 100 µM
UO-31 renal
  TGI: > 100 µM
ACHN renal
  TGI: > 100 µM
MCF7 breast
  TGI: > 100 µM
HS 578T breast
  TGI: 83.8 µM
OVCAR-3 ovarian
  TGI: 56.4 µM
U251 CNS
  TGI: 6.31 µM
NCI/ADR-RES ovarian
  TGI: > 100 µM
RPMI-8226 leukemia
  TGI: > 100 µM
OVCAR-5 ovarian
  TGI: 82.9 µM
HCT-15 colon
  TGI: > 100 µM
A549 NSCLC
  TGI: 95.1 µM
T-47D breast
  TGI: 9.17 µM
HOP-92 NSCLC
  TGI: 53.3 µM
UACC-257 melanoma
  TGI: > 100 µM
UACC-62 melanoma
  TGI: 80.5 µM
MDA-MB-435
  TGI: 6.88 µM
SN12C renal
  TGI: 57.8 µM
SK-OV-3 ovarian
  TGI: > 100 µM
SNB-19 CNS
  TGI: > 100 µM
RXF 393 renal
  TGI: 55.3 µM
HCT-116 colon
  TGI: 75.2 µM

## COc1ccccc1/C(=N\OCCC(=O)O)c1cccs1
NCI-H460 lung
  TGI: > 100 µM
HL-60(TB) leukemia
  TGI: > 100 µM
CAKI-1 renal
  TGI: > 100 µM
MDA-N
  TGI: > 100 µM
SW-620 colon
  TGI: > 100 µM
SF-295 CNS
  TGI: > 100 µM
SF-268 CNS
  TGI: > 100 µM
BT-549 breast
  TGI: > 100 µM
A498 renal
  TGI: > 100 µM
SNB-75 CNS
  TGI: > 100 µM
OVCAR-4 ovarian
  TGI: > 100 µM
KM12 colon
  TGI: > 100 µM
NCI-H226 lung
  TGI: > 100 µM
K-562 leukemia
  TGI: > 100 µM
PC-3 prostate
  TGI: > 100 µM
TK-10 renal
  TGI: > 100 µM
HCC-2998 colon
  TGI: > 100 µM
SK-MEL-5 melanoma
  TGI: > 100 µM
SF-539 CNS
  TGI: > 100 µM
786-0 renal
  TGI: > 100 µM
HT29 colon
  TGI: > 100 µM
LOX IMVI melanoma
  TGI: > 100 µM
DU-145 prostate
  TGI: > 100 µM
EKVX NSCLC
  TGI: > 100 µM
SK-MEL-28 melanoma
  TGI: > 100 µM
NCI-H23 lung
  TGI: > 100 µM
COLO 205 colon
  TGI: > 100 µM
SK-MEL-2 melanoma
  TGI: > 100 µM
MALME-3M melanoma
  TGI: > 100 µM
MOLT-4 leukemia
  TGI: > 100 µM
HOP-62 NSCLC
  TGI: > 100 µM
CCRF-CEM leukemia
  TGI: > 100 µM
UO-31 renal
  TGI: > 100 µM
OVCAR-8 ovarian
  TGI: > 100 µM
ACHN renal
  TGI: > 100 µM
MCF7 breast
  TGI: > 100 µM
HS 578T breast
  TGI: > 100 µM
OVCAR-3 ovarian
  TGI: > 100 µM
U251 CNS
  TGI: > 100 µM
NCI/ADR-RES ovarian
  TGI: > 100 µM
RPMI-8226 leukemia
  TGI: > 100 µM
OVCAR-5 ovarian
  TGI: > 100 µM
HCT-15 colon
  TGI: > 100 µM
A549 NSCLC
  TGI: > 100 µM
T-47D breast
  TGI: > 100 µM
HOP-92 NSCLC
  TGI: > 100 µM
UACC-257 melanoma
  TGI: > 100 µM
UACC-62 melanoma
  TGI: > 100 µM
MDA-MB-435
  TGI: > 100 µM
SN12C renal
  TGI: > 100 µM
SK-OV-3 ovarian
  TGI: > 100 µM
MDA-MB-231 breast
  TGI: > 100 µM
SNB-19 CNS
  TGI: > 100 µM
RXF 393 renal
  TGI: > 100 µM
HCT-116 colon
  TGI: > 100 µM

## O=c1cc(N2CCOCC2)[nH]c(=O)n1-c1ccc(F)cc1
NCI-H460 lung
  TGI: > 100 µM
M14 melanoma
  TGI: > 100 µM
HL-60(TB) leukemia
  TGI: > 100 µM
CAKI-1 renal
  TGI: > 100 µM
MDA-N
  TGI: > 100 µM
SW-620 colon
  TGI: > 100 µM
SF-295 CNS
  TGI: > 100 µM
SF-268 CNS
  TGI: > 100 µM
BT-549 breast
  TGI: > 100 µM
A498 renal
  TGI: > 100 µM
SNB-75 CNS
  TGI: > 100 µM
OVCAR-4 ovarian
  TGI: > 100 µM
KM12 colon
  TGI: > 100 µM
NCI-H226 lung
  TGI: > 100 µM
K-562 leukemia
  TGI: > 100 µM
PC-3 prostate
  TGI: > 100 µM
TK-10 renal
  TGI: > 100 µM
HCC-2998 colon
  TGI: > 100 µM
SF-539 CNS
  TGI: > 100 µM
786-0 renal
  TGI: > 100 µM
HT29 colon
  TGI: > 100 µM
LOX IMVI melanoma
  TGI: > 100 µM
DU-145 prostate
  TGI: > 100 µM
NCI-H522 lung
  TGI: > 100 µM
EKVX NSCLC
  TGI: > 100 µM
SK-MEL-28 melanoma
  TGI: > 100 µM
NCI-H23 lung
  TGI: > 100 µM
COLO 205 colon
  TGI: > 100 µM
IGROV1 ovarian
  TGI: > 100 µM
SK-MEL-2 melanoma
  TGI: > 100 µM
MALME-3M melanoma
  TGI: > 100 µM
MOLT-4 leukemia
  TGI: > 100 µM
HOP-62 NSCLC
  TGI: > 100 µM
CCRF-CEM leukemia
  TGI: > 100 µM
OVCAR-8 ovarian
  TGI: > 100 µM
ACHN renal
  TGI: > 100 µM
MCF7 breast
  TGI: > 100 µM
HS 578T breast
  TGI: > 100 µM
OVCAR-3 ovarian
  TGI: > 100 µM
U251 CNS
  TGI: > 100 µM
NCI/ADR-RES ovarian
  TGI: > 100 µM
RPMI-8226 leukemia
  TGI: > 100 µM
OVCAR-5 ovarian
  TGI: > 100 µM
HCT-15 colon
  TGI: > 100 µM
T-47D breast
  TGI: > 100 µM
UACC-257 melanoma
  TGI: > 100 µM
UACC-62 melanoma
  TGI: > 100 µM
MDA-MB-435
  TGI: > 100 µM
SN12C renal
  TGI: > 100 µM
SK-OV-3 ovarian
  TGI: > 100 µM
MDA-MB-231 breast
  TGI: > 100 µM
SNB-19 CNS
  TGI: > 100 µM
RXF 393 renal
  TGI: > 100 µM
HCT-116 colon
  TGI: > 100 µM

## CCCCc1c(N(C)C)c(OC(C)=O)c(-c2cn(C)c3ccccc23)oc1=O
SR leukemia
  TGI: > 100 µM
NCI-H460 lung
  TGI: > 100 µM
M14 melanoma
  TGI: 35.8 µM
HL-60(TB) leukemia
  TGI: 51.1 µM
CAKI-1 renal
  TGI: > 100 µM
MDA-N
  TGI: 44.8 µM
SW-620 colon
  TGI: > 100 µM
SF-295 CNS
  TGI: > 100 µM
SF-268 CNS
  TGI: 88.9 µM
BT-549 breast
  TGI: 72.2 µM
A498 renal
  TGI: 81.4 µM
SNB-75 CNS
  TGI: 86 µM
OVCAR-4 ovarian
  TGI: > 100 µM
KM12 colon
  TGI: 37.5 µM
NCI-H226 lung
  TGI: 36.8 µM
PC-3 prostate
  TGI: 50.9 µM
TK-10 renal
  TGI: > 100 µM
SK-MEL-5 melanoma
  TGI: 26.8 µM
SF-539 CNS
  TGI: 47.5 µM
786-0 renal
  TGI: > 100 µM
HT29 colon
  TGI: 47.5 µM
DU-145 prostate
  TGI: > 100 µM
NCI-H522 lung
  TGI: 49.5 µM
EKVX NSCLC
  TGI: > 100 µM
SK-MEL-28 melanoma
  TGI: 57.9 µM
NCI-H23 lung
  TGI: 56.7 µM
COLO 205 colon
  TGI: 44.1 µM
SK-MEL-2 melanoma
  TGI: 40.7 µM
MALME-3M melanoma
  TGI: 62.3 µM
MOLT-4 leukemia
  TGI: > 100 µM
HOP-62 NSCLC
  TGI: 55.7 µM
CCRF-CEM leukemia
  TGI: > 100 µM
UO-31 renal
  TGI: 53 µM
ACHN renal
  TGI: > 100 µM
MCF7 breast
  TGI: 39.6 µM
HS 578T breast
  TGI: > 100 µM
OVCAR-3 ovarian
  TGI: 67.9 µM
U251 CNS
  TGI: 64 µM
NCI/ADR-RES ovarian
  TGI: 56.3 µM
OVCAR-5 ovarian
  TGI: > 100 µM
HCT-15 colon
  TGI: 53.7 µM
A549 NSCLC
  TGI: > 100 µM
T-47D breast
  TGI: > 100 µM
UACC-257 melanoma
  TGI: 59.8 µM
UACC-62 melanoma
  TGI: 40.7 µM
MDA-MB-435
  TGI: 47.8 µM
SN12C renal
  TGI: 59.8 µM
SK-OV-3 ovarian
  TGI: > 100 µM
SNB-19 CNS
  TGI: 90.3 µM
RXF 393 renal
  TGI: > 100 µM
HCT-116 colon
  TGI: 40.9 µM
